≈ marks a conversion by molar mass, not a printed value. Like-named read-outs stand apart in the source and are kept apart here.

Consider seven compounds from US5503843A, “Transdermal delivery of alpha adrenoceptor blocking agents” (priority 1994, dated 1996).

In series [1] the test system is alpha1 adrenergic receptors. To be noted: WO93/17007; cited from earlier work.
In the next series the test system is rat bladder strip. Conditions: WO93/17007; cited from earlier work.
Series [2] can be described thus: pKa of alpha blockers (Table 1). It counts as physicochemical. The text has this:
However, the solubility improvement largely depends on the choice of solvent, any specific common ion interaction and the size and polarity of the counterion. Often, salts prepared from strong acids are freely soluble in water. […] Suitable alkane- or arenesulfonic acid anions include […], tosylate (para-toluenesulfonate), mesylate (methanesulfonate), napsylate (1-napthalene-2-sulfonate), besylate (benzene sulfonate) and […].

For series [3] the following is noted: in vivo; cited from earlier work.
A short description of series [4]: Solubility of Rec 15/2739 free base in various vehicles (Table 2). It counts as physicochemical. As for the experimental part:
Table 2 provides the solubility of the free base forms of the alpha blocker Rec 15/2739 in various vehicles. Solubility of free base is indicated as μg per ml of medium. PBS indicates phosphate buffered saline (20 mM phosphate and 0.9% NaCl).

Series [5] deals with mammalian lower urinary tract. To be noted: in vivo; cited from earlier work.
Series [6] has as its system rabbit prostrate, urethra, and vesical triangle. To be noted: Honda et al.; cited from earlier work.
In series [7] the test system is guinea pig prostrate, urethra, and vesical triangle. To be noted: Honda et al.; cited from earlier work.
In series [8] the test system is human urethra and vesical triangle. Conditions: Honda et al.; cited from earlier work.
Another series deals with rabbit trigone. To be noted: in vitro; cited from earlier work.
Series [9] has as its system rabbit urethral ring tissues. Conditions: in vitro; cited from earlier work.
Series [10] relates to smooth muscle originating from the trigone muscle at the base of the bladder. To be noted: trigone smooth muscle preparations; cited from earlier work.
For series [11] the following is noted: cited from earlier work.
In series [12] the test system is alpha1 A and alpha1 B adrenoceptors. Conditions: Michel et al.; cited from earlier work.

On to `COc1ccccc1N1CCN(CCCNC(=O)c2cccc3c(=O)c(C)c(-c4ccccc4)oc23)CC1` [Rec 15/2739, 8(3-4-(2-methoxyphenyl)-1-piperazinyl!-propylcarbamoyl)-3-methyl-4-oxo-2-phenyl-4H-1-benzopyran], for which, in series [1], the “affinity and selectivity for alpha1 adrenergic receptors” value was “has affinity and selectivity for the alpha1 adrenergic receptors”. For the same compound, in the series on rat bladder strip, the “antagonistic effects against contractions induced by potassium chloride” value is recorded as “demonstrate antagonistic effects against contractions of rat bladder strip induced by potassium chloride”. Also, the pKa in series [2] (read-out: pKa) stood at 7. Moreover, the toxicity entry in [3] is listed as “low toxicity”. Moreover, the solubility stood at 68 µg/mL (≈ 133 µM) in series [4] (aqueous buffer, PBS pH 5.2); 5.2 µg/mL (≈ 10.2 µM) in series [4] (aqueous buffer, PBS pH 6.7); 1.5 µg/mL (≈ 2.93 µM) in series [4] (saline). The “selectivity for lower urinary tract (urethral contractions vs lowering blood pressure)” value in series [5] is reported as “substantially more active in antagonizing urethral contractions than in lowering blood pressure”.

On to `CCOc1ccccc1OCCNC(C)Cc1ccc(OC)c(S(N)(=O)=O)c1` (stereo not drawn) [Tamsulosin, 5-2-2-(o-Ethoxyphenoxy)-ethyl!amino!propyl!-2-methoxybenzenesulfonamide], for which the reduction of contraction result in [6], in series [7] and in series [8] was “reduces the contraction” throughout.

Regarding `COc1cc2nc(N(C)CCCNC(=O)[C@@H]3CCCO3)nc(N)c2cc1OC` [S enantiomer], the “potency in antagonizing phenylephrine induced contraction (R vs S enantiomer)” value (in the series on rabbit trigone; in series [9]) was “equally potent” in each case.

Turning to `COc1cc2nc(N3CCN(C(=O)C4CCCO4)CC3)nc(N)c2cc1OC` (stereo not drawn) [Terazosin, reference compound], the pKa in series [2] amounted to 7.1.

As to `COc1cc2nc(N(C)CCCNC(=O)C3CCCO3)nc(N)c2cc1OC` (stereo not drawn) [Alfuzosin, N-3-(4-Amino-6,7dimethoxy-2-quinazolinyl) methylamino!propyl!tetrahydro-2-furancarboxamide], the “activity in altering phenylephrine induced contractions” value in series [10] is given as “shows activity in altering the phenylephrine induced contractions”. The plasma half life in series [11] (S. Lieto di Priolo et al.) was 4 to 9 h. For the same compound, in series [11] (oral, Wilde et al.), the mean oral bioavailability is reported as 64%. Further, the “selectivity for alpha1 subtypes” value in [12] was “lacks any relevant selectivity for alpha1 subtypes”.

Turning to `COc1cc2nc(N(C)CCCNC(=O)[C@H]3CCCO3)nc(N)c2cc1OC` [R enantiomer], the “potency in antagonizing phenylephrine induced contraction (R vs S enantiomer)” value (in the series with rabbit trigone; in [9]) was “equally potent” each time.

Turning to `COc1cc2nc(N3CCN(C(=O)c4ccco4)CC3)nc(N)c2cc1OC` [Prazosin, reference compound], in series [3], the “most common side effect” value is reported as “hypotension”.

As a reminder, the pKa is the negative logarithm of the acid dissociation constant. As a reminder, the solubility is the dissolved amount per volume that the medium holds. A low value points to little dissolved substance.
